What is called IC50 is the concentration at which inhibition is half-maximal. A higher IC50 goes with a need for much substance. The term Ki denotes a dissociation constant, usually derived from enzyme kinetics or from competition with a known ligand. A higher Ki goes with weaker binding.

Entries after “also recorded” stand apart in the source; their conditions may differ.

The text below walks through data of publication PMC2929362 (Bioorganic & medicinal chemistry, 2009).

Assay [1] concerns the target T1, Hst2 (Saccharomyces cerevisiae, UniProt P53686). Briefly: biochemical. The note with it: for IC50 (Table 5, scaffold 12 analogs, Hst2): Hst2 fluorigenic assay.
Assay [2] has as its target T1, Hst2. Briefly: biochemical. As to conditions: for activity at 50 µM: read-out: % Activity at 50 μM; for activity at 500 µM: read-out: % Activity at 500 μM; for inhibition of Hst2 deacetylation by scaffold analogs (in words): SAR discussion. It is filed as biochemical.
The next assay concerns the target T2, human SIRT2 (Homo sapiens, UniProt Q8IXJ6).
T2 sequence (Q8IXJ6 1-352 isoform Q8IXJ6-2): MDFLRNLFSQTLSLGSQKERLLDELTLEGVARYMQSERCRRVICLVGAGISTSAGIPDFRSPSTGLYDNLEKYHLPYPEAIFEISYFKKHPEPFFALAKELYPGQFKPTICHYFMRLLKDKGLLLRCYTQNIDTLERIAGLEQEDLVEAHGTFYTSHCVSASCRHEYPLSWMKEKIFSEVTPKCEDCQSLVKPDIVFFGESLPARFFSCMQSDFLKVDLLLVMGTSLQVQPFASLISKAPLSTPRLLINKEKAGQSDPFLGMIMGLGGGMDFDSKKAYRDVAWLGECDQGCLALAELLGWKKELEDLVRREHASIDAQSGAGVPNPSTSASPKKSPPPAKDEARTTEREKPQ
Briefly: Inhibition of a panel of human sirtuin homologues: SIRT2. The class given is biochemical.

The target in assay [3] is T1, Hst2. Briefly: Reversibility assay. The class given is biochemical. As to conditions: Hst2 incubated with 10× IC50 of inhibitor, then 100-fold dilution.
The target in another assay is T3, human SIRT3 (Homo sapiens, UniProt Q9NTG7).
T3 sequence (Q9NTG7 1-399): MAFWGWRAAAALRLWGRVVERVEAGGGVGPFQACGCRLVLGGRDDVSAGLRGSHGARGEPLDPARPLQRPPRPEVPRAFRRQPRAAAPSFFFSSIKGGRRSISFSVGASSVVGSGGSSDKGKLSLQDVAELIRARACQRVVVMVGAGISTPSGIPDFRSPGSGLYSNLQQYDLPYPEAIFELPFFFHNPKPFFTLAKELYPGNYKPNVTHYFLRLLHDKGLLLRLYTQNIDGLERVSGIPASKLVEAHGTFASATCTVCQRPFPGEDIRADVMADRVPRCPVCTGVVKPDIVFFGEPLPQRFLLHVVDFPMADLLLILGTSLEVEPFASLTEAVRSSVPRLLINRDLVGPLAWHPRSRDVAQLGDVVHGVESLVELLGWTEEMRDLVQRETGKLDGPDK
Kind of assay: Inhibition of a panel of human sirtuin homologues: SIRT3. It is filed as biochemical.

Assay [4] deals with T1, Hst2. Kind of assay: Competition assay. It is filed as biochemical. The note with it: for α: mixed inhibition model.
Assay [5] concerns the target T4, full length human SIRT1 (FL SIRT1) (Homo sapiens, UniProt Q96EB6).
T4 sequence (Q96EB6 1-747): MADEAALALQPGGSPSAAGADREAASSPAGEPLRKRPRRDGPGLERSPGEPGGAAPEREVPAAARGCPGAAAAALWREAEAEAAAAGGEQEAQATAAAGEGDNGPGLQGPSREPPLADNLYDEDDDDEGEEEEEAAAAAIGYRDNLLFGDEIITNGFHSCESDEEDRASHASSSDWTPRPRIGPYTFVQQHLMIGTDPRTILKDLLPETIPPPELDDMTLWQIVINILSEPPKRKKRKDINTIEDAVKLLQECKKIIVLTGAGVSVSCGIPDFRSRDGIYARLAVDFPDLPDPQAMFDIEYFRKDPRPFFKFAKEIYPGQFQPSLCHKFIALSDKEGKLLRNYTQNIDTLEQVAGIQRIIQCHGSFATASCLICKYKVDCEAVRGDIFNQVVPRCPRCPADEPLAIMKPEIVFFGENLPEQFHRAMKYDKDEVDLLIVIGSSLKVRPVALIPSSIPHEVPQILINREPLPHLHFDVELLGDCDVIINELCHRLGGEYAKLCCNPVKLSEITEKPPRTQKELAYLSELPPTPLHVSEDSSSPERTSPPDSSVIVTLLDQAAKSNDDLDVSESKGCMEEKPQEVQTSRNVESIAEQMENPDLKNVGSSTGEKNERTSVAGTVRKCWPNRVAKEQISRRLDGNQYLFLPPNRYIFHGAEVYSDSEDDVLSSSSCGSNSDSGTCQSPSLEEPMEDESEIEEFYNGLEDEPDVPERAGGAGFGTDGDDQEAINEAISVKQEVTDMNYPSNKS
Briefly: Fluorigenic.

T1 sequence (P53686 1-294): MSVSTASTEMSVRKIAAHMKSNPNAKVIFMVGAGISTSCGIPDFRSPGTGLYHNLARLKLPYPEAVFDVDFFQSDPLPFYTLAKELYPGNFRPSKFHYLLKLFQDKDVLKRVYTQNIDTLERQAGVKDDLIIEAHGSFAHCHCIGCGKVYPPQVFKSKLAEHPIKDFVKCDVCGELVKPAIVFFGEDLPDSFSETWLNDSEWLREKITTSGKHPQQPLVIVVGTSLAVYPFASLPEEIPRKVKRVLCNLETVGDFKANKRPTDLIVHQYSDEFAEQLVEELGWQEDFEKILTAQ

As to `O=C(O)CCN1C(=O)c2cc(Cl)c(Cl)cc2C1=O` [Compound 39008], the “IC50 (Table 5, scaffold 12 analogs, Hst2)” value at Hst2 [1] is listed as “No inhibition”.

In the case of `Nc1ccc2c(c1)C(=O)N(CCC(=O)O)C2` [Compound 42071], the “IC50 (Table 5, scaffold 12 analogs, Hst2)” value against Hst2 [1] is listed as “No inhibition”.

In the case of `COCC#CC1c2cc(O)c(OC)cc2CCN1Cc1ccc(OC)cc1` (centres unmarked) [Compound 14b], at Hst2 [2], the activity at 50 µM amounted to 92% and the activity at 500 µM stood at 2%.

Regarding `CCc1ccc(OCCCC(=O)Oc2ccc3c(c2)oc(=O)c2ccccc23)cc1` [Compound 11, 4-(4-Ethyl-phenoxy)-butyric acid 6-oxo-6H-benzo[c]chromen-3-yl ester], at human SIRT2, the “inhibition of human SIRT2 (in words)” value is “potent inhibitor of SIRT2”. The “slope of progress curve, % of enzyme plus DMSO control” value at Hst2 [3] worked out at 82%. In addition, the “inhibition of human SIRT3 (in words)” value against human SIRT3 is reported as “but not SIRT3”. In addition, on Hst2 [2], the activity at 50 µM is less than 1%. On Hst2 [2], the activity at 500 µM was less than 1%. Also, the results for the “Inhibition Mechanism” value at Hst2 [4] (substrate NAD+) and at Hst2 [4] (substrate acetyl-lysine) were “fully non-competitive inhibition model; also recorded: NC (full)” and “partial non-competitive inhibition model; also recorded: NC (partial)”, respectively.

`O=C(O)CCN1Cc2ccccc2C1=O` [Compound 12, 3-(1-Oxo-1,3-dihydro-isoindol-2-yl)-propionic acid]: the “inhibition of human SIRT2 (in words)” value against human SIRT2 is listed as “only weak inhibitory activity”. For the same compound, the “slope of progress curve, % of enzyme plus DMSO control” value at Hst2 [3] was 96%. Also, at human SIRT3, the “inhibition of human SIRT3 (in words)” value is given as “only weak inhibitory activity”. Also, the “Inhibition Mechanism” value on Hst2 [4] (substrate NAD+) and on Hst2 [4] (substrate acetyl-lysine) was “fully non-competitive inhibition model; also recorded: NC (full)” each time.

As for `COc1ccc(OCCCC(=O)Oc2ccc3c(c2)CCC3)cc1` [Compound 6978945], on Hst2 [2], the “inhibition of Hst2 deacetylation by scaffold analogs (in words)” value (from here on “inhibition … by scaffold analogs (in words)”) is recorded as “significantly reduced potency”.

With `Oc1c(Cl)cc(Cl)c(Cl)c1Cc1c(O)c(Cl)cc(Cl)c1Cl` [Compound 13, hexachlorophene], the IC50 was 12.5 ± 0.6 µM against Hst2 [1] and 34 ± 10 µM in assay [5]. Further, the Ki is 3.9 ± 0.7 µM on Hst2 [4] (with respect to NAD+ (varied 5-80 μM), acetyl-lysine substrate 100 μM) and 2.5 ± 1 µM on Hst2 [4] (with respect to acetyl-lysine substrate (varied 3-50 μM), NAD+ 160 μM). Besides, the “Inhibition Mechanism” value on Hst2 [4] (substrate NAD+) is “fully non-competitive inhibition model; also recorded: NC (full)”; on Hst2 [4] (substrate acetyl-lysine) it was “fully mixed inhibition model; also recorded: Mixed (full)”. At Hst2 [4] (substrate acetyl-lysine), this compound yielded a α of 13.4.

As for `C[S+]([O-])CCC(C(=O)O)N1C(=O)c2ccccc2C1=O` (centres unmarked) [Compound 00032], the “IC50 (Table 5, scaffold 12 analogs, Hst2)” value on Hst2 [1] is “No inhibition”.

For the compound `CCc1ccc(OCCCC(=O)Oc2ccc3c(C)cc(=O)oc3c2)cc1` [Compound 6802623], the “inhibition … by scaffold analogs (in words)” value on Hst2 [2] is “significantly reduced potency”.

`O=C(O)CCCN1C(=O)c2ccccc2C1=O` [Compound 47032]: the “IC50 (Table 5, scaffold 12 analogs, Hst2)” value against Hst2 [1] is recorded as “No inhibition”.

Consider `Cc1cc(Cc2cc(C)c(O)c(C)c2)cc(C)c1O` [Compound 97252], for which the “inhibition … by scaffold analogs (in words)” value at Hst2 [2] is listed as “most inhibitory activity”.

Consider `Cc1cccc(OCC(=O)Oc2ccc3c(C)cc(=O)oc3c2)c1` [Compound 5140108], for which, on Hst2 [2], the “inhibition … by scaffold analogs (in words)” value is on record as “showed some deacetylase inhibition”.

Regarding `COCC#CC1c2cc(O)c(OC)cc2CCN1C` (centres unmarked) [Compound 14a, 6-Methoxy-1-(3-methoxy-prop-1-ynyl)-2-methyl-1,2,3,4-tetrahydro-isoquinolin-7-ol], the “inhibition of human SIRT2 (in words)” value on human SIRT2 is recorded as “only weak inhibitory activity”. For the same compound, the “inhibition of human SIRT3 (in words)” value at human SIRT3 is reported as “only weak inhibitory activity”. At Hst2 [4] (substrate NAD+), the “Inhibition Mechanism” value was “fully mixed inhibition model; also recorded: Mixed (full)” and the α was 2.6. Besides, on Hst2 [4] (substrate acetyl-lysine), the “Inhibition Mechanism” value is “fully non-competitive inhibition model; also recorded: NC (full)”.

On to `Cc1ccc(OCCCC(=O)Oc2ccc3c(c2)CCC3)c(C)c1` [Compound 7985301], for which, on Hst2 [2], the “inhibition … by scaffold analogs (in words)” value is on record as “significantly reduced potency”.

As for `CC(C)C(=O)CCN1C(=O)c2ccccc2C1=O` [Compound 04265], the “IC50 (Table 5, scaffold 12 analogs, Hst2)” value against Hst2 [1] is recorded as “No inhibition”.

For `O=C(O)CCN1C(=O)c2ccc(-c3nc4ccccc4c(=O)o3)cc2C1=O` [Compound 47054], the “IC50 (Table 5, scaffold 12 analogs, Hst2)” value against Hst2 [1] was “No inhibition”.

Consider `O=C1c2ccccc2C(=O)N1CCBr` [Compound 91032], for which, at Hst2 [1], the “IC50 (Table 5, scaffold 12 analogs, Hst2)” value is “No inhibition”.
